Calls of active or inactive are those of the source.
Tests used:
[1] = biological target: T1, Acyl-homoserine lactone acylase PvdQ (Pseudomonas aeruginosa (strain LESB58), UniProt Q9I194); experiment: PvdQ acylase enzyme activity blockers – biochemical, fluorescence, plate reader and imaging, cherry-picks, dose response (AID 493231)
T1 sequence (Q9I194 whole entry): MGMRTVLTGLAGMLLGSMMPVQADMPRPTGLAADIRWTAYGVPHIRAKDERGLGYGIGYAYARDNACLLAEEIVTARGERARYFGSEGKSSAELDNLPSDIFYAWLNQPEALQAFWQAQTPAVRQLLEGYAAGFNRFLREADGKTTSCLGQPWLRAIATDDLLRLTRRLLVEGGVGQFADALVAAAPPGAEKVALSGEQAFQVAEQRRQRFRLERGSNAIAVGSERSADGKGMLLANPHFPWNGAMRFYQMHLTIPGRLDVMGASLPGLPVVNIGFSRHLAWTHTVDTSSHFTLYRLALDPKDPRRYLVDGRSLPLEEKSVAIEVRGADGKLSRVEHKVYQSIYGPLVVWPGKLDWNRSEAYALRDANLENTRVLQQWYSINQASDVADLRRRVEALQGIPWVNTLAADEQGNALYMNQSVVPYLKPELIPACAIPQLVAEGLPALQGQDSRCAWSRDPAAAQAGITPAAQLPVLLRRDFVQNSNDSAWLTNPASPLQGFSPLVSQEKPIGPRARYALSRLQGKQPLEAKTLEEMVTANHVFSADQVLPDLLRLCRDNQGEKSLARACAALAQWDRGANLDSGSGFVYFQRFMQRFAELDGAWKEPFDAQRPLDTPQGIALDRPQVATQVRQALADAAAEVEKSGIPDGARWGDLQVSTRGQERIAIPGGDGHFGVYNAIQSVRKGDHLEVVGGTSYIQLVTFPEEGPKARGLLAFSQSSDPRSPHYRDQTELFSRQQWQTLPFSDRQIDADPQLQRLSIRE

[2] = mitochondrial function rescue without frataxin homolog – Friedreich's ataxia, plus single-dose screen, dose response (AID 1465); format: functional;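 note: yeast depleted of Yfh1p frataxin homolog grown on glycerol needing respiration; WST-1 tetrazolium dye reduction as measure of cellular dehydrogenase metabolic activity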
[3] = biological target: Luciferin 4-monooxygenase (Photinus pyralis, UniProt P08659); experiment: Counter Screen for Luciferase-based Assay Positives. [Related pubchem assays: 620, 618, 411 ]
Luciferin 4-monooxygenase, sequence (P08659 whole entry): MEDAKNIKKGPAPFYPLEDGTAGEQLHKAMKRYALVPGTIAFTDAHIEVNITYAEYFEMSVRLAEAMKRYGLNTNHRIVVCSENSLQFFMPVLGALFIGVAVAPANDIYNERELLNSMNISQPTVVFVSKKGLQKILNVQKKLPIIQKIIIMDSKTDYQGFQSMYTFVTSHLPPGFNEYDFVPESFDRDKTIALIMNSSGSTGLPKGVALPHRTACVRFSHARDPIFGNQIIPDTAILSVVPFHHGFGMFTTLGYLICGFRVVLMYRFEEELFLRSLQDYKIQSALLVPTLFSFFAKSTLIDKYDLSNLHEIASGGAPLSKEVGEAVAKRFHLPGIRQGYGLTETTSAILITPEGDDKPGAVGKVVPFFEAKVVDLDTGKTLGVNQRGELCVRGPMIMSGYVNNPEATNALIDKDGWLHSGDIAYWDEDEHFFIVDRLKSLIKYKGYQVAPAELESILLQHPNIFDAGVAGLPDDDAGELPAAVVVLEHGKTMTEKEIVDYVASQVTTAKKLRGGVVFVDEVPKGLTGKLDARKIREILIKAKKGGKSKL

HT-1080 = experiment: HT1080 cell viability loss – fluorescence readout (AID 620); format: functional, cell-based; conditions: Homo sapiens
[4] = toxicity toward HepG2 liver cells – cell-based, plate reader, cherry-pick, antagonist series, cytotoxicity control, dose response (AID 743416); format: functional
[5] = blockers of bursicon-stimulated LGR2 cAMP reporter – cell-based, HEK293, CRE-luciferase reporter, cherry pick, set 2, dose response (AID 743343); format: functional;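 note: transfected cells were stimulated with diluted bursicon conditioned medium after compound addition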
[6] = blockade of melanocortin 4 receptor signaling – cell-based, plate reader, cherry pick, counter-screen for LGR2 antagonist project, dose response (AID 743444); format: functional;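 note: transfected HEK 293 cells stimulated with alpha-MSH peptide; potency of inhibitors of the alpha-MSH evoked signal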
[7] = biological target: 26S proteasome non-ATPase regulatory subunit 14 (Homo sapiens, UniProt O00487); experiment: inhibition of proteasome subunit RPN11 – biochemical, fluorescence polarization, uHTS hits, confirmation (AID 602368); format: functional
26S proteasome non-ATPase regulatory subunit 14, sequence (O00487 whole entry): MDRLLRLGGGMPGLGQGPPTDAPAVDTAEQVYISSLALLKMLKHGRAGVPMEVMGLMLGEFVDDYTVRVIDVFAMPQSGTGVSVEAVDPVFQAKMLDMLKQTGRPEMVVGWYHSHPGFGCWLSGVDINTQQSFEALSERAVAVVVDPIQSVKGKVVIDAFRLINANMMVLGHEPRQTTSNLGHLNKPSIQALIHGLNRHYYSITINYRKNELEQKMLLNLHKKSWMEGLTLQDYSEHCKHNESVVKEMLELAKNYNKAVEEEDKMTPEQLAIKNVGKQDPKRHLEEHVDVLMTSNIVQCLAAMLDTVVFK

[8] = biological target: 72 kDa type IV collagenase (Homo sapiens, UniProt P08253); experiment: Dose Response validation of uHTS RPN11 inhibitor hits using a MMP-2 Fluorescence assay.; format: functional
72 kDa type IV collagenase, sequence (P08253 whole entry): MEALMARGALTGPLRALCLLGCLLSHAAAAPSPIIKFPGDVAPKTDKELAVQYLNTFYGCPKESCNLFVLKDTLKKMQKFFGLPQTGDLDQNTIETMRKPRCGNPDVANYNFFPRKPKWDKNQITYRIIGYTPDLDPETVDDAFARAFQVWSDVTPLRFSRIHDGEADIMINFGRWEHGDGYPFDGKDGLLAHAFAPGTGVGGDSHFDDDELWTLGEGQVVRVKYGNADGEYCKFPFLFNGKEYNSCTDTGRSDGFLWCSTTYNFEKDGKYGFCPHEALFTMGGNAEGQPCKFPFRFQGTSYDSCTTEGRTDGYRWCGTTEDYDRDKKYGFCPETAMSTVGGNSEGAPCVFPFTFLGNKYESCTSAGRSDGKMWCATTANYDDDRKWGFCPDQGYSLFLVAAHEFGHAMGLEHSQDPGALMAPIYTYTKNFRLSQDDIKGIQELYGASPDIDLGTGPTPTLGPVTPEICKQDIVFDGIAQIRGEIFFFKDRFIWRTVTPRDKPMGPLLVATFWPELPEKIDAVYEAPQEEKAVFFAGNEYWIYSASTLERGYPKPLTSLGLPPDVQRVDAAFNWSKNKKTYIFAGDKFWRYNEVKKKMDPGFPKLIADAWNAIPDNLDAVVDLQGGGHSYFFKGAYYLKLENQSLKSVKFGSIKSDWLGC

Prothrombin = Prothrombin (Bos taurus, UniProt P00735); experiment: thrombin protease inhibitors – biochemical, fluorescence polarization, uHTS hits, dose response (AID 602369); format: functional
[9] = biological target: G-protein coupled receptor 35 (Homo sapiens, UniProt Q9HC97); experiment: inhibition of zaprinast-stimulated GPR35 beta-arrestin translocation – imaging, U2OS, beta-arrestin-GFP, zaprinast agonist, primary screen (AID 2058); format: functional;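 note: antagonist potency meaning inhibition of agonist-induced arrestin redistribution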
G-protein coupled receptor 35, sequence (Q9HC97 whole entry): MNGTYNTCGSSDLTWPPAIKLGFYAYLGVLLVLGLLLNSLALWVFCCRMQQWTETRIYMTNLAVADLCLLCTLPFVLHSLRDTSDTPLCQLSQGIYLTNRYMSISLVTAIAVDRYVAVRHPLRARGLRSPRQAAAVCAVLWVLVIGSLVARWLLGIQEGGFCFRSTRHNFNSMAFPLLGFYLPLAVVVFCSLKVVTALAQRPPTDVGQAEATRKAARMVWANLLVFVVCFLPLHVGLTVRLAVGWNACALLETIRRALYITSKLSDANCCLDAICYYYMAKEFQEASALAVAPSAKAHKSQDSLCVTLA

BJ [10] = experiment: BJ-TERT fibroblast viability loss – cell-based, RAS-independent, luminescence, dose response (AID 1933); format: functional; conditions: Homo sapiens
BJ [11] = experiment: cells; format: functional, cell-based; conditions: Homo sapiens
BJ [12] = experiment: BJ-TERT-LT-ST fibroblast viability loss – cell-based, RAS-independent, luminescence, dose response (AID 1935); format: functional; conditions: Homo sapiens;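 note: BJ fibroblasts immortalized with TERT plus LT and ST oncogenes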
[13] = DRD fibroblast viability loss – cell-based, non-viral oncogenic, luminescence, dose response (AID 1934); format: functional; conditions: Homo sapiens
[14] = biological target: T2, Endoribonuclease toxin MazF (Escherichia coli K-12, UniProt P0AE70); experiment: activation of MazEF endoribonuclease cleavage – biochemical, fluorescence, single-stranded RNA substrate, uHTS hits, dose response (AID 588481); format: functional
T2 sequence (P0AE70 whole entry): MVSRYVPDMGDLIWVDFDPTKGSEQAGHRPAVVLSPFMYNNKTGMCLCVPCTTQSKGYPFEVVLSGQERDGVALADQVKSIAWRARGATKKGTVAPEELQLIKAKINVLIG

[15] = biological target: T2, Endoribonuclease toxin MazF; experiment: substrate-only fluorescence increase artefacts – biochemical, single-stranded RNase substrate, counter-screen for MazEF activator project, dose response (AID 588502); format: functional
[16] = biological target: G-protein coupled receptor 55 (Homo sapiens, UniProt Q9Y2T6); experiment: selective activators of receptor GPR55 – imaging, U2OS cells, beta-arrestin-GFP redistribution, primary screen (AID 1961); format: functional
G-protein coupled receptor 55, sequence (Q9Y2T6 whole entry): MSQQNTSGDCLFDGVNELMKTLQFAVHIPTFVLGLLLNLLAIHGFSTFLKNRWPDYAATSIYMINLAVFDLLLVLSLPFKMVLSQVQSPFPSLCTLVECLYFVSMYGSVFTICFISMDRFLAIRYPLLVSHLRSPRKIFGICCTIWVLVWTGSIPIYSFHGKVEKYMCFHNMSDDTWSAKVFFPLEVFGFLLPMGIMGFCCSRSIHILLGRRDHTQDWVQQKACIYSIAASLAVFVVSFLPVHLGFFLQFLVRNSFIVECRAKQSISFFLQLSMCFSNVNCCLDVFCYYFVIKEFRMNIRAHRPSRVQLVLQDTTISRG

[17] = biological target: T3, Epstein-Barr nuclear antigen 1 (Epstein-Barr virus (strain B95-8) (HHV-4) (Human herpesvirus 4), UniProt P03211); experiment: inhibition of EBV nuclear antigen 1 DNA binding – biochemical, fluorescence polarization, 1536-well, dose response (AID 2381); parameters: species or system human gammaherpesvirus 4;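 note: fluorescence polarization of a Cy5 DNA probe bound by EBNA-1 protein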
T3 sequence (P03211 whole entry): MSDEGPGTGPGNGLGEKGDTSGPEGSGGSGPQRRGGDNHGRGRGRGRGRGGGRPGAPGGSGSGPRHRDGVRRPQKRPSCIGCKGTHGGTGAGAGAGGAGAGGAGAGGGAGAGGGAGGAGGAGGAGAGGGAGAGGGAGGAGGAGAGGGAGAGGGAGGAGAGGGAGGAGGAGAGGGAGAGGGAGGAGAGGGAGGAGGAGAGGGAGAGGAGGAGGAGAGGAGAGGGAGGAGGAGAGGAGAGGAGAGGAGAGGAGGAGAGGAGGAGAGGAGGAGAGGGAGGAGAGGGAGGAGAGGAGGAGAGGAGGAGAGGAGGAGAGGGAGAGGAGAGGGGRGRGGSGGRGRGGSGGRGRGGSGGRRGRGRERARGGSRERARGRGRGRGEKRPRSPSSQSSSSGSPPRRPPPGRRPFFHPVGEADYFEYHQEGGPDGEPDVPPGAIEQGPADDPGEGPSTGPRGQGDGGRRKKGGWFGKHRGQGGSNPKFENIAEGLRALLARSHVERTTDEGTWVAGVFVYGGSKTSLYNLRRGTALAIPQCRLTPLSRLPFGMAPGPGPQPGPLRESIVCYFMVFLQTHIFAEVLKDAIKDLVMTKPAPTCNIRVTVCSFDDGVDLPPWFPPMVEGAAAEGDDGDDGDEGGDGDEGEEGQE

[18] = biological target: T4, Lytic switch protein BZLF1 (Epstein-Barr virus (strain B95-8) (HHV-4) (Human herpesvirus 4), UniProt P03206); experiment: inhibition of BZLF1 ZTA DNA binding – biochemical, fluorescence polarization, Epstein-Barr virus, 1536-well, counter-screen for EBNA-1 inhibitor project, dose response (AID 2377); parameters: species or system human gammaherpesvirus 4;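 note: fluorescence polarization of Cy5-labelled ZRE DNA probe bound by purified Zta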
T4 sequence (P03206 whole entry): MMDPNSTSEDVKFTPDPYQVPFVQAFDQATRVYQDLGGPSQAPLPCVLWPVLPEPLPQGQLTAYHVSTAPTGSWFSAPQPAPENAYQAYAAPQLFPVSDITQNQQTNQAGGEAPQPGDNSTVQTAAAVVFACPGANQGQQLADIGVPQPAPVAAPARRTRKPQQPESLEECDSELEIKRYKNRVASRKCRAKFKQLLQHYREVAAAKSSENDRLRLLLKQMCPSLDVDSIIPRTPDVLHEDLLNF

[19] = biological target: T5, Short transient receptor potential channel 4 (Mus musculus, UniProt Q9QUQ5); experiment: block of DAMGO-driven TRPC4 calcium entry – cell-based, HEK293 TRPC4/mu-opioid, Fluo-4 calcium, dose response (AID 434942); format: functional;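 note: potency of inhibitors blocking the TRPC4 calcium response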
T5 sequence (Q9QUQ5 whole entry): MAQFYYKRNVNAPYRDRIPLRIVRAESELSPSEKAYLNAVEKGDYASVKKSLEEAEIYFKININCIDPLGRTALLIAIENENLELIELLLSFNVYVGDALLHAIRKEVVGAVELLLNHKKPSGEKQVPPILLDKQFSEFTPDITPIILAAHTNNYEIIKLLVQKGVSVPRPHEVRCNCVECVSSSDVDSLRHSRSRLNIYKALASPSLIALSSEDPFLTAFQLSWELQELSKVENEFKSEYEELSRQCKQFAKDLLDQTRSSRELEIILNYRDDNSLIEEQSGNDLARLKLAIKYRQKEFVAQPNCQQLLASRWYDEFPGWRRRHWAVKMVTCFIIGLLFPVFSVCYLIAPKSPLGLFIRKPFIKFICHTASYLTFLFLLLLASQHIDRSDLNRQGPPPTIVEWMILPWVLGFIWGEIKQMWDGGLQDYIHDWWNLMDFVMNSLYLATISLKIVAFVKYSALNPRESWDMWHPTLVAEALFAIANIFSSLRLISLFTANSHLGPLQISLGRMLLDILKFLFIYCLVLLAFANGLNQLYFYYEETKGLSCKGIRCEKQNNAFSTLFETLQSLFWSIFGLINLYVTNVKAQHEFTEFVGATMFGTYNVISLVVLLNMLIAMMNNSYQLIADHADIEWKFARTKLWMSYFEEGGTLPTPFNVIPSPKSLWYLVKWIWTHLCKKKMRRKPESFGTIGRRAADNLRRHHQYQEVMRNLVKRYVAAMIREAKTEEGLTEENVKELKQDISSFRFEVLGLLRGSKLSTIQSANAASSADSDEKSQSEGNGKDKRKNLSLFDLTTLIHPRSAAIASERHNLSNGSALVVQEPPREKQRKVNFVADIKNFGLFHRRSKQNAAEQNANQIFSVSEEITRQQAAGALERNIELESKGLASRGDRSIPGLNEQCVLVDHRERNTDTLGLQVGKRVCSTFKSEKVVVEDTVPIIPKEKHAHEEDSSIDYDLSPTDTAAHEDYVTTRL

COC(=O)c1cc(-c2cccc(OC)c2)on1
AC50 [1]: > 100 µM (inactive)

CN1C(=O)C(=Cc2ccc(N3CCOCC3)o2)C(=O)N(C)C1=O
EC50 [2]: > 100 µM (active)

Oc1c2c(nc3cc(-c4ccc(F)cc4)nn13)CCCC2
EC50 [3]: 79.7 µM (active) | EC50 (HT-1080): 33.8 µM (active) | AC50 [4]: > 52 µM (inactive) | AC50 [5]: 7.51 µM (active) | AC50 [6]: 6.58 µM (active)

O=C1C=C(c2cccc(Cl)c2)C[C@@H](c2ccc(F)cc2)C1
AC50 [1]: 9.81 µM (active)

O=[N+]([O-])c1ccc(N2CCCCC2)s1
EC50 [2]: > 100 µM (active) | IC50 [7]: 36.1 µM (active) | IC50 [8]: > 100 µM (inactive) | IC50 (Prothrombin): 68 µM (active)

COCCN1C(=O)/C(=C/c2ccc(N3CCCC3)cc2)SC1=S
IC50 [9]: < 0.5 µM (active) | EC50 (BJ [10]): 20.9 µM (inconclusive) | EC50 (BJ [11]): > 150 µM (not active) | EC50 (BJ [12]): > 150 µM (not active) | EC50 [13]: 49.7 µM (active) | EC50 [14]: > 99 µM (inactive) | EC50 [15]: > 99 µM (inactive)

CCCN(CCC)Cc1c(C(=O)N/N=C/C(C)=C\c2ccccc2)nnn1-c1nonc1N
EC50 [16]: 0.525 µM (active)

CCOC(=O)c1ccc(N2Cc3ccccc3C2=N)cc1
AC50 [1]: 3.83 µM (active)

N#Cc1c2ncn(CC(=O)c3ccc(Br)cc3)c(=O)c2c2n1CCC2
IC50 [17]: 13.1 µM (not active) | IC50 [18]: > 111 µM (not active)

CCn1c(=O)n(CCOC)c(=O)c2c3c(sc21)CCCC3
EC50 [19]: 1.19 µM (active)

Cc1ccc(NC(=O)CSc2ccc(-c3ccc4c(c3)OCO4)nn2)cc1F
IC50 [17]: 4.44 µM (active) | IC50 [18]: > 111 µM (not active)

Reference: ChEMBL document CHEMBL1201862, “PubChem BioAssay data set” (2004)
